The results in this text go back to publication PMC10176470, “Engaging a Non-catalytic Cysteine Residue Drives Potent and Selective Inhibition of Caspase-6” (Journal of the American Chemical Society, 2023).

Common to all, as to experiment: SILAC proteomics / in-gel fluorescence, competition of probe 13-t labeling by 3a
For experiment [1], the target named is proteins of HEK293T cells transiently overexpressing caspase-6 (Homo sapiens, UniProt Q9NR30). As to conditions: Comp; protein DDX21 Q9NR30.
Chain of proteins of HEK293T cells transiently overexpressing caspase-6 (Homo sapiens, UniProt Q9NR30) (Q9NR30 whole entry): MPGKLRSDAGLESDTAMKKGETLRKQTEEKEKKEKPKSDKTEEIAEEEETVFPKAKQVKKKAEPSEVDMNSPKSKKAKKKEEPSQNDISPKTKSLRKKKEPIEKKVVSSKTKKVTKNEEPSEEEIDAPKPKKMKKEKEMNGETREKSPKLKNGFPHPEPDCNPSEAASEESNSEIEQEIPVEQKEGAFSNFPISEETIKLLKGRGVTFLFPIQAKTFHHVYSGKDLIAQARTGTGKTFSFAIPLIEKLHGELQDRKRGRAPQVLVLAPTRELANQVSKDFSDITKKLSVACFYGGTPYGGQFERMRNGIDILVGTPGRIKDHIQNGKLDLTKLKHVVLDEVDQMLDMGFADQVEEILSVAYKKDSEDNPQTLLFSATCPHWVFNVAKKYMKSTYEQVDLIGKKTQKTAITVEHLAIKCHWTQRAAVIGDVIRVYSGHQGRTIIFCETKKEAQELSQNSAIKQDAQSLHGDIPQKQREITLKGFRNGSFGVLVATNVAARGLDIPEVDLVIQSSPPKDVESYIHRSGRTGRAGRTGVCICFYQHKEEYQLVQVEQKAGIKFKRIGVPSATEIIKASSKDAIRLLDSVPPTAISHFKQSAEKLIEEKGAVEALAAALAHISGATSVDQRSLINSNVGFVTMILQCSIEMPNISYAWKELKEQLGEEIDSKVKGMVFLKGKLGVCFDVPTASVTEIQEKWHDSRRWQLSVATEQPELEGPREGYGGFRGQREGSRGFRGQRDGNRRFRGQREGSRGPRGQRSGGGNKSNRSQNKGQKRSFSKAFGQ
In experiment [2] the target is proteins of HEK293T cells transiently overexpressing caspase-6 (Homo sapiens, UniProt P62241). As to conditions: Comp; protein RPS8 P62241.
Experiment [3] deals with proteins of HEK293T cells transiently overexpressing caspase-6 (Homo sapiens, UniProt P62888). The note with it: Comp; protein RPL30 P62888.
The target of experiment [4] is proteins of HEK293T cells transiently overexpressing caspase-6 (Homo sapiens, UniProt Q07020). The note with it: Comp; protein RPL18 Q07020.
Experiment [5] has as its target proteins of HEK293T cells transiently overexpressing caspase-6 (Homo sapiens, UniProt P83731). The note with it: Comp; protein RPL24 P83731.
For experiment [6], the target named is proteins of HEK293T cells transiently overexpressing caspase-6 (Homo sapiens, UniProt P40938). As to conditions: Comp; protein RFC3 P40938.
Chain of proteins of HEK293T cells transiently overexpressing caspase-6 (Homo sapiens, UniProt P40938) (P40938 whole entry): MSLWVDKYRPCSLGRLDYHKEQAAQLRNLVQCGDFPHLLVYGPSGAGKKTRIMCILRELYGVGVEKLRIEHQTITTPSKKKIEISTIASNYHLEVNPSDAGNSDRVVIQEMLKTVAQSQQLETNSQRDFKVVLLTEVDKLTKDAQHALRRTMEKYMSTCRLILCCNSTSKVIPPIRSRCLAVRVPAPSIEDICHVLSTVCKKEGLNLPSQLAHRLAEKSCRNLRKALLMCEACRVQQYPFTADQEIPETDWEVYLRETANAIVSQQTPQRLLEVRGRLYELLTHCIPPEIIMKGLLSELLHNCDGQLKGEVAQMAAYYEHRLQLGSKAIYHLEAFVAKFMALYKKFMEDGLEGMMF
Experiment [7] addresses proteins of HEK293T cells transiently overexpressing caspase-6 (Homo sapiens, UniProt Q9Y2X3). As to conditions: Comp; protein NOP58 Q9Y2X3.
Experiment [8] has as its target proteins of HEK293T cells transiently overexpressing caspase-6 (Homo sapiens, UniProt P14868). As to conditions: Comp; protein DARS P14868.
Experiment [9] has as its target proteins of HEK293T cells transiently overexpressing caspase-6 (Homo sapiens, UniProt P27708).
Experiment [10] deals with T1, proteins of HEK293T cells transiently overexpressing caspase-6 (Homo sapiens, UniProt P54136).
T1 sequence (P54136 1-660): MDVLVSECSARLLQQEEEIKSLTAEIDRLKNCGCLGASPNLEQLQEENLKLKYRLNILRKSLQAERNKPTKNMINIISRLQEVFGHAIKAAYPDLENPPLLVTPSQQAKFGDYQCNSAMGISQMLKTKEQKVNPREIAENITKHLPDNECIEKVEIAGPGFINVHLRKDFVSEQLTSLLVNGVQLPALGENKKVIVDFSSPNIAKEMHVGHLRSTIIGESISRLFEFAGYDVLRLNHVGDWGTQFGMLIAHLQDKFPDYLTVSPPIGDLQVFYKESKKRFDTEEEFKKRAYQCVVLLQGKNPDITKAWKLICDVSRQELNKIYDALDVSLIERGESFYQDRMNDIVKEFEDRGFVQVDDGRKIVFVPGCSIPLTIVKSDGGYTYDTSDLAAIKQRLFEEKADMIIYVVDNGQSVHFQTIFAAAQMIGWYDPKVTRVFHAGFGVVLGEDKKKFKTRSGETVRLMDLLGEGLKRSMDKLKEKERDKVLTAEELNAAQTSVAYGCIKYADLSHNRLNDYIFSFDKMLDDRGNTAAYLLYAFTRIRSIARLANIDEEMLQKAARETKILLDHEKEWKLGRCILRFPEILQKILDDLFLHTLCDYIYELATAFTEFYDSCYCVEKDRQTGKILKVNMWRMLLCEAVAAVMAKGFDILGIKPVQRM

In experiment [11] the target is T2, proteins of HEK293T cells transiently overexpressing caspase-6 (Homo sapiens, UniProt Q9UQ80).
T2 sequence (Q9UQ80 1-394): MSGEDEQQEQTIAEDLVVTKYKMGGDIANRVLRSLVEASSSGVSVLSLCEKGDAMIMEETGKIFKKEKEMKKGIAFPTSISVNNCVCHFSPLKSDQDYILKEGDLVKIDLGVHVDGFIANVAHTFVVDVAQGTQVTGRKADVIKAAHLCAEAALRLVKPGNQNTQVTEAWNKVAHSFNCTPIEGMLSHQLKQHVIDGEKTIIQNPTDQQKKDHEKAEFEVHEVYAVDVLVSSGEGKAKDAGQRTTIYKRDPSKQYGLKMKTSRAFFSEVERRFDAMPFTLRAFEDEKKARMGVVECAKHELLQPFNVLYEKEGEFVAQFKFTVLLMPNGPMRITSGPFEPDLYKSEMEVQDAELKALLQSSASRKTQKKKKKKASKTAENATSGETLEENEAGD
As to conditions: Comp; protein PA2G4 Q9UQ80.

Experiment [12] deals with proteins of HEK293T cells transiently overexpressing caspase-6 (Homo sapiens, UniProt P15880). The note with it: Comp; protein RPS2 P15880.
Experiment [13] deals with proteins of HEK293T cells transiently overexpressing caspase-6 (Homo sapiens, UniProt P12277). As to conditions: Comp; protein CKB P12277.
Chain of proteins of HEK293T cells transiently overexpressing caspase-6 (Homo sapiens, UniProt P12277) (P12277 whole entry): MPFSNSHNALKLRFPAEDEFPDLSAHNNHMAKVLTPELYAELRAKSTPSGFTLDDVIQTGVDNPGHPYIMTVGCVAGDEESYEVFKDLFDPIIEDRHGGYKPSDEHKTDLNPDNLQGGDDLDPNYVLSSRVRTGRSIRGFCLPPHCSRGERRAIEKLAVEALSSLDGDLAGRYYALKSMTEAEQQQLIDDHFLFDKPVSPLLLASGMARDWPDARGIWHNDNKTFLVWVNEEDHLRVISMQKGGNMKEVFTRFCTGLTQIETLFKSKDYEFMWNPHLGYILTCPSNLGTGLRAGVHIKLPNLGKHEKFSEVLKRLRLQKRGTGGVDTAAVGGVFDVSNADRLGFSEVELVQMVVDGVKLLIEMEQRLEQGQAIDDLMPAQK
Experiment [14] has as its target proteins of HEK293T cells transiently overexpressing caspase-6 (Homo sapiens, UniProt P46060). The note with it: Comp; protein RANGAP1 P46060.
Where [15] appears, read: protein CAD (P27708), Exp Comp, analysis C6, p 0.5000, 2 peptides.
Where [16] appears, read: protein RARS (P54136), Exp Comp, analysis C6, p 0.0312, 7 peptides.

Chain of proteins of HEK293T cells transiently overexpressing caspase-6 (Homo sapiens, UniProt P27708) (P27708 whole entry): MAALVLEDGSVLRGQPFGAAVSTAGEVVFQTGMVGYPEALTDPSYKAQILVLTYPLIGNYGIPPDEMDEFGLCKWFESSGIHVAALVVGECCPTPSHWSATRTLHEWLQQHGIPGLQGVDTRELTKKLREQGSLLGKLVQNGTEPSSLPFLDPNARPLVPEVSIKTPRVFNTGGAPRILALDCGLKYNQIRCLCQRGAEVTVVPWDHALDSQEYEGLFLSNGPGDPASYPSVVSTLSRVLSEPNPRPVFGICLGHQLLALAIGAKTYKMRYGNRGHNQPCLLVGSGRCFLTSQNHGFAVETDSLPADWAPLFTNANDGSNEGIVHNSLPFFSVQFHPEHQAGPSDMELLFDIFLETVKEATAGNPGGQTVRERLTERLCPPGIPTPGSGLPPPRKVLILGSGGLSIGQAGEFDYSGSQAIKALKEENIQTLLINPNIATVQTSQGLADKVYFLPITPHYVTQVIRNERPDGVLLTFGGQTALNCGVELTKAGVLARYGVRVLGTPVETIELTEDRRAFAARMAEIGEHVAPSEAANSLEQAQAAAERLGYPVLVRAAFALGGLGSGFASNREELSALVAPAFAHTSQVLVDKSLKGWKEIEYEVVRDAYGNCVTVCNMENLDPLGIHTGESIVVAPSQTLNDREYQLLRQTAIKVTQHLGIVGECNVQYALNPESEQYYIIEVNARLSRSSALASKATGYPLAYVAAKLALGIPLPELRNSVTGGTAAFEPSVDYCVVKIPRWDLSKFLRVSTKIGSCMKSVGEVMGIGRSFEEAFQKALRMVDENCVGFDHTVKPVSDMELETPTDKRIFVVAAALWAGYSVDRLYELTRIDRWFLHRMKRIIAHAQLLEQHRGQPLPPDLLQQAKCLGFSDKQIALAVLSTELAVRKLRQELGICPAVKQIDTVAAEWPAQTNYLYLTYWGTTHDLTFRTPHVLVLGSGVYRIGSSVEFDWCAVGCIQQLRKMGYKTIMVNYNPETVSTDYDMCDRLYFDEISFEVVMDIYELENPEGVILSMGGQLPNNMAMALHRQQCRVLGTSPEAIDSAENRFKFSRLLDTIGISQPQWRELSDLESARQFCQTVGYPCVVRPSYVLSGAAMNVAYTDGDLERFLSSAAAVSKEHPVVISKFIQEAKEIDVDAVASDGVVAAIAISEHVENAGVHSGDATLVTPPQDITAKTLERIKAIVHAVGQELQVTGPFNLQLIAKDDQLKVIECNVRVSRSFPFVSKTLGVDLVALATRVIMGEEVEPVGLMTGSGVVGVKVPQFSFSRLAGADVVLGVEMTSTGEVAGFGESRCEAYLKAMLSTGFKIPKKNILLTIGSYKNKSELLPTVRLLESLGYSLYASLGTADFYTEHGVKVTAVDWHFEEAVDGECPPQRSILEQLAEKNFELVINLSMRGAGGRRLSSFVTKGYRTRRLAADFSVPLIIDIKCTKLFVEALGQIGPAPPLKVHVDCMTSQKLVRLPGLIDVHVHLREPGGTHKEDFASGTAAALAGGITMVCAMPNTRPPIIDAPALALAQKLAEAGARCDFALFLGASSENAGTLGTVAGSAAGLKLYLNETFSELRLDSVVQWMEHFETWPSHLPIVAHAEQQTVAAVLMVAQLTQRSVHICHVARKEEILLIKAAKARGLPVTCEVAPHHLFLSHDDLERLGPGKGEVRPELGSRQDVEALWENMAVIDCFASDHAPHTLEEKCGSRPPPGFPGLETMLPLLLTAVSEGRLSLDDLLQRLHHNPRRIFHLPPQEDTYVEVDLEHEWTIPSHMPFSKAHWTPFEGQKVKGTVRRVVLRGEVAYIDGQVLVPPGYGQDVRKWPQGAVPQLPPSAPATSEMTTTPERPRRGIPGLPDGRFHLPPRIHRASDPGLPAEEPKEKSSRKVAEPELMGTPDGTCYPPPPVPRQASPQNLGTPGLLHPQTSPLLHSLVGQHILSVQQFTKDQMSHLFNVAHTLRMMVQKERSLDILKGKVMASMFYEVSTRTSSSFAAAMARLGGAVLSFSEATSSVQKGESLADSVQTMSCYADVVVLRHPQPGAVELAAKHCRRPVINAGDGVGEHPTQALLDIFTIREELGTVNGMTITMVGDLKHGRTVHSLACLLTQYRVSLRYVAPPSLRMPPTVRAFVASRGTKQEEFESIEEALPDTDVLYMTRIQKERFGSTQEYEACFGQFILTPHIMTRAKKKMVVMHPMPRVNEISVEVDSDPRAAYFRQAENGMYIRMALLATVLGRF
Chain of proteins of HEK293T cells transiently overexpressing caspase-6 (Homo sapiens, UniProt Q9Y2X3) (Q9Y2X3 whole entry): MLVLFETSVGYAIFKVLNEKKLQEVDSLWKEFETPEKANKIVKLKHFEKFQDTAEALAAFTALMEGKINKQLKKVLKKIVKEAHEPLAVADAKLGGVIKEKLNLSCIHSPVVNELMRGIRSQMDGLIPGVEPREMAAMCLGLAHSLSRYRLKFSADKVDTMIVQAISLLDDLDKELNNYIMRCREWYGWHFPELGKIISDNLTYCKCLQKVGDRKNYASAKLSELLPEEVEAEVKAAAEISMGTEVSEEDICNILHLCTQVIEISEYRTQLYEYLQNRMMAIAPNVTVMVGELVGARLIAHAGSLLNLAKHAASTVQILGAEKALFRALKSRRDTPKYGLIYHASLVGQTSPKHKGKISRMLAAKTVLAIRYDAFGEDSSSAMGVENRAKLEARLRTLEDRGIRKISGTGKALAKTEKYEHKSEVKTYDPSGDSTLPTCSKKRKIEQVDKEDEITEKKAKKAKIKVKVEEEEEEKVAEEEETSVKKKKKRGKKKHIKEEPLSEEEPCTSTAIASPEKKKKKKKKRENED
Chain of proteins of HEK293T cells transiently overexpressing caspase-6 (Homo sapiens, UniProt P46060) (P46060 whole entry): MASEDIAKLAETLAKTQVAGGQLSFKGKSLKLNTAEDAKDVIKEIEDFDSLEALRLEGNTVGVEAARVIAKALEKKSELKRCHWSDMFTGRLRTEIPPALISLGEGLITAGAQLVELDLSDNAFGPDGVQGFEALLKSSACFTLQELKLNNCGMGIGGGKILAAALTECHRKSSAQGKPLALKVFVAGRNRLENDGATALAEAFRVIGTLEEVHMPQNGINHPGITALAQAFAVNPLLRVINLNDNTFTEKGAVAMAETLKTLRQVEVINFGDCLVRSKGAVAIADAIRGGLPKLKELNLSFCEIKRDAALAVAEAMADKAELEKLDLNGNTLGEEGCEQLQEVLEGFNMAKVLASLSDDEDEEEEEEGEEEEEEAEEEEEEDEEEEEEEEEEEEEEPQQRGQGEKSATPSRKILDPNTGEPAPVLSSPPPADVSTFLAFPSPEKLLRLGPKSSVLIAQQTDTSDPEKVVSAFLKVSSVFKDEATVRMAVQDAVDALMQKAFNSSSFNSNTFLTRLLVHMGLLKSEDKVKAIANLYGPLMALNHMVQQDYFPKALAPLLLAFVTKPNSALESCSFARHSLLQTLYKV

As for `C=CS(=O)(=O)N1C[C@H](C(=O)Nc2ccc(OC(F)(F)F)cc2)C[C@@H](c2ccccc2)C1` [3a], the enrich.exp.med in experiment [1] was determined as 0.6506; in experiment [2], 0.6264; in [3] it was 0.6036; in experiment [4], 0.6186; in experiment [5], 0.668; in [6], 0.6326. Further, the enrich.exp.med in experiment [7] is given as 0.7213; in experiment [8] it was 0.8565; in experiment [9] (Comp, protein CAD P27708), 1.9642; in [10] (Comp, protein RARS P54136), 1.077; in experiment [11] it was 0.7436; in [12], 0.7281. For the same molecule, the figures for the enrich.exp.med in experiment [13] and in experiment [14] were 0.6631 and 0.6389, respectively. The enrich.exp.med.lin amounted to 3.902 in experiment [9] (setting [15]) and 2.11 in experiment [10] (setting [16]). In addition, the enrich.exp.med.log2 in experiment [9] (setting [15]) is reported as 1.9642; in experiment [10] (setting [16]), 1.077.
